Test results: patent publication US12440567B2, “Aqueous antibody formulation stabilized by antioxidants for parenteral administration” (AMGEN INC., priority 2007, dated 2025)

Columns and labels:
[1] = system: Antibody B binding to protein A; assay: Binding of Antibody B to protein A after UV-B exposure of the formulation; conditions: 20 mM additive; pH 6.90 phosphate buffer; 0-24 hours UV-B
Method: For the examples below involving exposure to UVB radiation, each sample was exposed to UVB light (λ≈302 nm) for varying times, using a UVP 8W model UVLMS-38 lamp at 4° C. The formulations were then analyzed using size exclusion chromatography high pressure liquid chromatography (SEC-HPLC). Aggregation (measured via SEC-HPLC analysis) and binding (measured using CM5 gold sensor chips) were measured to determine the effect of the antioxidant on aggregation and bioactivity of the therapeutic protein.
The binding activity of therapeutic protein to a ligand (e.g. to an antibody or binding partner, or, in cases where the therapeutic was an antibody, binding activity to the specific target antigen or to protein A) was determined as follows. […] The therapeutic protein-binding ligand of interest was injected until the desired immobilization level was achieved (above 5000 response units). Three different therapeutic protein-binding ligands were measured—Antibody A's target antigen, Protein A, and D11 (an antibody that binds to erythropoietin). […] The remaining activated groups were blocked with 1.0 M ethanolamine-HCl, pH 8.5.
A standard curve was prepared by using native forms of the therapeutic protein of interest. Native forms of the therapeutic protein were diluted in HBS-EP buffer (pH 7.4) to concentrations between 1 and 5 μg/mL, and then injected on the column, prepared as described above to obtain a standard curve. At the end of each sample run, regeneration buffer was used to wash away any bound therapeutic protein in preparation for subsequent injections.
Various UV-stressed antibody formulations were also diluted in HBS-EP buffer (pH 7.4) to a concentration within the standard curve region, and injected to quantitate the loss of bioactivity to its respective ligand-binding partner.

EPO binding to D11 = assay: EPO binding activity after metal catalyzed oxidation (Fe-EDTA, H2O2, ascorbate); parameters: species or system human; conditions: 5 mM ferulic acid; EPO 336 μg/mL in HBS pH 7.0; 0.2 mM Fe-EDTA, 0.3% H2O2, 1 mM ascorbate, 2 hours 37° C.
Method: The binding activity of therapeutic protein to a ligand (e.g. to an antibody or binding partner, or, in cases where the therapeutic was an antibody, binding activity to the specific target antigen or to protein A) was determined as follows. Carboxymethyl-dextran chains on a CM5 gold sensor chip were activated with 1-ethyl-3-(3-dimethylaminopropyl)-carbodiimide HCl (EDC) and N-hydroxysuccinimide (NETS) at a flow rate of 5 μL/min. The therapeutic protein-binding ligand of interest was injected until the desired immobilization level was achieved (above 5000 response units). Three different therapeutic protein-binding ligands were measured—Antibody A's target antigen, Protein A, and D11 (an antibody that binds to erythropoietin). For introduction of Antibody A's target antigen to the column, an 80 μg injection of the antigen, diluted in 10 mM Na Acetate pH 4.0 was introduced; for Protein A, a 4 μg injection of Protein A, diluted in 10 mM Na Acetate pH 4.5, was introduced; for D11, a […] injection of D11, diluted in 10 mM Na Acetate pH 5.0 was introduced. The remaining activated groups were blocked with 1.0 M ethanolamine-HCl, pH 8.5.
A standard curve was prepared by using native forms of the therapeutic protein of interest. […]

binding of Antibody B to protein A after UV-B exposure [1]: prevented UV-B induced degradation
EPO binding activity preserved (EPO binding to D11): 100%
Structure (SMILES): COc1cc(/C=C/C(=O)O)ccc1O [ferulic acid]
